From patent publication US20150011566A1, “N-PHENYLPIPERAZINE DERIVATIVES THAT ARE ANTAGONISTS OF A1A, A1D ADRENOCEPTORS AND 5-HT1A RECEPTORS FOR THE TREATMENT OF BENIGN PROSTATE HYPERPLASIA, PHARMACEUTICAL COMPOSITIONS CONTAINING THE SAME” (UNIVERSIDADE FEDERAL DO RIO DE JANEIRO-UFRJ, priority 2012, published 2015)
Marks after values point to notes of the source that are not given here.

Columns and labels:
α1D receptors = biological target: T1, α1D receptors (Homo sapiens, UniProt P25100); test: Cell proliferation in vitro, DU-145 cells stimulated with phenylephrine (MTT); assay type: cell-based; conditions: for Proliferation percentage in relation to basel (100%) in the presence of LDT's, α1D: 48 h; for inhibition of the effect of the α1D receptors stimulus on proliferation: LDT3 50 nM, LDT66 20 nM
T1 construct: endogenous in cells; host or cells: DU-145
T1 sequence (P25100 1-572): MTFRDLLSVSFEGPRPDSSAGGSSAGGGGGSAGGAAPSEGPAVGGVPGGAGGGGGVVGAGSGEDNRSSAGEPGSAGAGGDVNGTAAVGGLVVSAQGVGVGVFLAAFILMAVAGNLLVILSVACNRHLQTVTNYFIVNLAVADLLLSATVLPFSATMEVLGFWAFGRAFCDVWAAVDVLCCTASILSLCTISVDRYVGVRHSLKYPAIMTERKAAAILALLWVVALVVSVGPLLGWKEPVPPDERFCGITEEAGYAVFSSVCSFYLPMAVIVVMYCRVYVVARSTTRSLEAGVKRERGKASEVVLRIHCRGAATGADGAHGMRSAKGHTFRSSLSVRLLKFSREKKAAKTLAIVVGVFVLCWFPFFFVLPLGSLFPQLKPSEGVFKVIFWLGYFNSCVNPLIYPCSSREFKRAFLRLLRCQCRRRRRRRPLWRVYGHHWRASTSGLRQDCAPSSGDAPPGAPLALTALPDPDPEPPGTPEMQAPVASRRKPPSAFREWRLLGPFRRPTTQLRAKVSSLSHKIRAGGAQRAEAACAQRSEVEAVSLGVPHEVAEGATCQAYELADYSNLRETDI
Protocol: (§1) Human prostate cancer cells (DU-145) were cultured in medium (RPMI 1640) until confluence. Then the cells were dissociated, plated (5×10^3 cells/well) and maintained in medium free of fetal bovine serum for 24 hours. […] Cell proliferation was assessed by using the MTT technique (MOSMANN, T. Immunol Methods. 16; 65 (1-2):55-63, 1983).

5-HT1A receptors = biological target: T2, 5-HT1A receptors (Homo sapiens, UniProt P08908); test: Cell proliferation in vitro, DU-145 cells stimulated with 5-HT (MTT); assay type: cell-based; conditions: for Proliferation percentage in relation to basel (100%) in the presence of LDT's, 5HT1A: 48 h; for inhibition of the effect of the 5-HT1A receptors stimulus on proliferation: LDT3 50 nM, LDT66 20 nM
T2 construct: endogenous in cells; host or cells: DU-145
T2 sequence (P08908 1-422): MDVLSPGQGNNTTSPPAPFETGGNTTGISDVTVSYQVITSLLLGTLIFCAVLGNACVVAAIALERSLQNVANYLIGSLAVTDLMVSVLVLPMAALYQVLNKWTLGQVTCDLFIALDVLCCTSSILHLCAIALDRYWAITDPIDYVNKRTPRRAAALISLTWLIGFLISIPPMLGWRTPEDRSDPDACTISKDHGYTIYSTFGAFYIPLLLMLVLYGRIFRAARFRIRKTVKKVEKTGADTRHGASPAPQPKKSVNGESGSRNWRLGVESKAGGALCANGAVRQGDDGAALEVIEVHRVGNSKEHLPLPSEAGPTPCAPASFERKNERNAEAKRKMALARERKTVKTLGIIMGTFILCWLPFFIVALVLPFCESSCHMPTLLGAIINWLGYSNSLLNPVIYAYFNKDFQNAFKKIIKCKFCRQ
Protocol: as §1

[1] = Acute toxicity test in Swiss mice (body temperature, behaviour for 14 days); assay type: in vivo; conditions: n=6; for T (° C.) Basal Measure: body temperature before treatment; for T (° C.) 30′ after LDT / T (° C.) 60′ after LDT: body temperature, 100 mg/kg ip
Protocol: Swiss mice (female, 25-30 g, 6 animals per condition) were treated with LDT via intraperitoneal with LTD's at a dose of […] and observed for 14 days in the behavioral framework according to described method (LORKE, D., Arch Toxicol, 54 (4): 275-87, 1983, modified). The temperature was measured by retal probe before and after 30 and 60 min of described treatment.

D2-Like receptors = D2-Like receptors (Rattus norvegicus, UniProt P61169); test: D2-like receptors binding assay, [3H]-YM 09151-2 (rat striatal membranes); conditions: Table 15; for Ki: Cheng-Prusoff
D2-Like receptors, sequence (P61169 whole entry): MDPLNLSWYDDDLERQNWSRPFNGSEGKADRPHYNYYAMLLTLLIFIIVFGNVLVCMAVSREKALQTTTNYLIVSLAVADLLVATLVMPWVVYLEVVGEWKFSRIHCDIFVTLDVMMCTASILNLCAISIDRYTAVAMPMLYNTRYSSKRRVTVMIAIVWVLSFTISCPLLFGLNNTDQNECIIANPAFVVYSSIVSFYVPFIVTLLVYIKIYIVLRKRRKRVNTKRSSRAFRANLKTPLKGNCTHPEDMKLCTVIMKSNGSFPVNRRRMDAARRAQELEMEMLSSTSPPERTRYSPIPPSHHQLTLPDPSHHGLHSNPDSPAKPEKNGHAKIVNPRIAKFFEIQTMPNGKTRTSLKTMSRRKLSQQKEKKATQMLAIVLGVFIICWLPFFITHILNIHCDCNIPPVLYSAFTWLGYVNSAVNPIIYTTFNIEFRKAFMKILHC
Protocol: Briefly, organs were homogenized for 30 seconds three times in Fisatom in 50 mM Tris-HCl, MgCl2 8 mM, 5 mM EDTA (pH 7.4 at 4° C.) and then centrifuged at 48,000×gav (20 minutes 4° C.). The pellet was resuspended in 50 mM Tris-HCl, 8 mM MgCl2, 5 mM EDTA (pH 7.4 at 37° C.), incubated at 37° C. for 10 minutes and centrifuged twice more. The final pellet was resuspended in the same buffer at a concentration of 1.5 mL/g tissue.
Non-specific binding was measured in the presence of 30 μM sulpiride. Assays were performed in triplicate.
The radioactivity retained on the filters was then determined in a liquid scintillation counter (Packard Tri-Carb 1600 TR). For these receptors were also determined IC50 and Ki parameters.

α1D adrenoceptors = biological target: T3, α1D adrenoceptors (Rattus norvegicus, UniProt P23944); test: Phenylephrine-induced contraction inhibition in rat aorta (isometric contraction, Schild KB); assay type: cell-based; conditions: ratio of EC50 in presence and absence of test substance, 2 nM
T3 construct: the rat thoracic aorta corresponds to a tissue expressing mainly α1D-adrenoceptors; from tissue; host or cells: rat thoracic aorta rings
T3 sequence (P23944 1-561): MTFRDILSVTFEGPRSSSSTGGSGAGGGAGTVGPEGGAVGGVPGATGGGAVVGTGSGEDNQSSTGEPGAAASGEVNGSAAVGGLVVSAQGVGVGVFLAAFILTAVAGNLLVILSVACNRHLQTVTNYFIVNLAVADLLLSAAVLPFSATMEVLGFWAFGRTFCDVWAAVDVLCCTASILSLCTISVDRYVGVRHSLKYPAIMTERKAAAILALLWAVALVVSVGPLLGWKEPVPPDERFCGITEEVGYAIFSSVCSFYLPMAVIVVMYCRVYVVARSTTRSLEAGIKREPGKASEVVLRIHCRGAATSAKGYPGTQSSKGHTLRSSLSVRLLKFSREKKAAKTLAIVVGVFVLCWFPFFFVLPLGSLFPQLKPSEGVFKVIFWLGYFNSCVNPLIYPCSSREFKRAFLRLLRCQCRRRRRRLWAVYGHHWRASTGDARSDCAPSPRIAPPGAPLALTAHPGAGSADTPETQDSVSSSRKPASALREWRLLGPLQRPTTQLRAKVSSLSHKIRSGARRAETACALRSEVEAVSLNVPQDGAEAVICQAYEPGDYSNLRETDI

[2] = DU-145, 5-HT 1 μM + test substance 50 nM
[3] = DU-145, phenylephrine 3 μM + test substance 50 nM

Row | SMILES | Proliferation percentage in relation to basel (100%) in the presence of LDT's, 5HT1A (5-HT1A receptors; [2]) | T (° C.) Basal Measure [1] [°C] | T (° C.) 30′ after LDT [1] [°C] | T (° C.) 60′ after LDT [1] [°C] | Ki (D2-Like receptors) [nM] | -log IC50 (M) (D2-Like receptors) | other results
1 | COc1cccc(CCN2CCN(c3ccccc3OC)CC2)c1 [LDT 3] | 96.9 ± 5.8^b % | 35.33 | 35.50 | 35.50 |  |  | Proliferation percentage in relation to basel (100%) in the presence of LDT's, α1D (α1D receptors; DU-145, phenylephrine 3 μM + test substance 500 nM): 99.2 ± 5.8^a %; inhibition of the effect of the α1D receptors stimulus on proliferation (α1D receptors): inhibited the effect; inhibition of the effect of the 5-HT1A receptors stimulus on proliferation (5-HT1A receptors): inhibited the effect
2 | COc1ccc(CCN2CCN(c3ccccc3OC)CC2)cc1OC [LDT 5] | 118.8 ± 9.9% | 35.00 | 35.50 | 35.17 | 100 |  | Proliferation percentage in relation to basel (100%) in the presence of LDT's, α1D (α1D receptors; [3]): 117.3 ± 8.9%
3 | CCOc1ccccc1N1CCN(CCc2ccc3c(c2)OCO3)CC1 [LDT 8] |  | 35.67 | 35.67 | 35.50 |  |  | Proliferation percentage in relation to basel (100%) in the presence of LDT's, α1D (α1D receptors; DU-145, phenylephrine 3 μM + test substance 5 nM): 124.05 ± 9.6%; Proliferation percentage in relation to basel (100%) in the presence of LDT's, 5HT1A (5-HT1A receptors; DU-145, 5-HT 1 μM + test substance 5 nM): 138.4 ± 42.9%
4 | CCCCCN1CCN(c2ccccc2OC)CC1 [LDT 65] |  | 37.17 | 37.17 | 37.17 |  |  | 
5 | CCCCCCN1CCN(c2ccccc2OC)CC1 [LDT 66] | 110.8 ± 7.7^b % | 37.00 | 37.50 | 37.33 | 40 | 6.92 ± 0.11 | Proliferation percentage in relation to basel (100%) in the presence of LDT's, α1D (α1D receptors; [3]): 76 ± 7.7^a %; inhibition of the effect of the α1D receptors stimulus on proliferation (α1D receptors): inhibited the effect; inhibition of the effect of the 5-HT1A receptors stimulus on proliferation (5-HT1A receptors): inhibited the effect
6 | CCCCCCCN1CCN(c2ccccc2OC)CC1 [LDT 67] |  |  |  |  | 9 | 7.47 ± 0.07 | 
7 | CCCCCCCCN1CCN(c2ccccc2OC)CC1 [LDT 68] |  |  |  |  | 9 | 7.49 ± 0.09 | 
8 | CCOc1ccccc1N1CCN(CCc2ccc(OC)c(OC)c2)CC1 [LDT 245] |  |  |  |  |  |  | CR ± EPM (α1D adrenoceptors): 3.9 ± 1.0
